Assay results taken from the supplement of paper PMC10307832.

What was measured:
Test in all cases: relative viability (nuclei count vs DMSO), 5 days (fraction); higher = more cells survive
[1] = compound: CCN1CCC(CC1)N2C=C(N=N2)CNC3=CC4=C(C(=CN=C4C(=C3)Cl)C#N)NC5=CC(=C(C=C5)F)Cl [KIN001-266] + CCNC(=O)c1noc(-c2cc(C(C)C)c(O)cc2O)c1-c1ccc(CN2CCOCC2)cc1 [Luminespib] (partner 0.01 µM)
Summary of the method: (§1)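 Nuclei were stained with Hoechst during a one-step fixation (final 0.05% Triton X-100, 1% formaldehyde, 1 ug/ml Hoechst) carried out 5 days after dosing, then counted on 4× images. The cells, lung cancer lines in 1536-well plates, had been dosed by pin tool the day after seeding with one drug alone or a fixed anchor-drug dose plus five library-drug doses (not always all listed) in √10 steps. Relative viability is the nuclei count in treated wells divided by that in vehicle wells, and each value is the median of duplicate plates.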

[2] = compound: CCN1CCC(CC1)N2C=C(N=N2)CNC3=CC4=C(C(=CN=C4C(=C3)Cl)C#N)NC5=CC(=C(C=C5)F)Cl [KIN001-266] + Cc1nc(NC(=O)N2CCC[C@H]2C(N)=O)sc1-c1ccnc(C(C)(C)C(F)(F)F)c1 [Alpelisib] (partner 2 µM)
Summary of the method: as §1

[3] = compound: CCN1CCC(CC1)N2C=C(N=N2)CNC3=CC4=C(C(=CN=C4C(=C3)Cl)C#N)NC5=CC(=C(C=C5)F)Cl [KIN001-266] + Cc1nc(Nc2ncc(C(=O)Nc3c(C)cccc3Cl)s2)cc(N2CCN(CCO)CC2)n1 [Dasatinib] (partner 0.075 µM)
Summary of the method: as §1

[4] = compound: CCN1CCC(CC1)N2C=C(N=N2)CNC3=CC4=C(C(=CN=C4C(=C3)Cl)C#N)NC5=CC(=C(C=C5)F)Cl [KIN001-266] + Cc1cc(Nc2cc(N3CCN(C)CC3)nc(Sc3ccc(NC(=O)C4CC4)cc3)n2)n[nH]1 [Tozasertib] (partner 0.1 µM)
Summary of the method: as §1

Cell Line | relative viability ([1]; first compound 0.08 µM) | relative viability ([1]; first compound 0.253 µM) | relative viability ([1]; first compound 0.8 µM) | relative viability ([1]; first compound 2.53 µM) | relative viability ([1]; first compound 8 µM) | relative viability ([2]; first compound 0.08 µM) | relative viability ([2]; first compound 0.253 µM) | relative viability ([2]; first compound 0.8 µM) | relative viability ([2]; first compound 2.53 µM) | relative viability ([2]; first compound 8 µM) | relative viability ([3]; first compound 0.08 µM) | relative viability ([3]; first compound 0.253 µM) | relative viability ([3]; first compound 0.8 µM) | relative viability ([3]; first compound 2.53 µM) | relative viability ([3]; first compound 8 µM) | relative viability ([4]; first compound 0.08 µM) | relative viability ([4]; first compound 0.253 µM) | relative viability ([4]; first compound 0.8 µM) | relative viability ([4]; first compound 2.53 µM) | relative viability ([4]; first compound 8 µM)
NCI-H1437 | 1.08 | 1.13 | 1.1 | 1.09 | 0.854 | 0.997 | 1.06 | 0.961 | 0.858 | 0.495 | 0.413 | 0.421 | 0.346 | 0.369 | 0.249 | 0.425 | 0.366 | 0.393 | 0.38 | 0.264
NCI-H1651 | 0.845 | 0.936 | 0.753 | 0.861 | 0.593 | 1.05 | 0.949 | 1.01 | 0.99 | 0.865 | 0.43 | 0.421 | 0.388 | 0.472 | 0.411 | 0.782 | 0.591 | 0.51 | 0.78 | 0.396
NCI-H1666 | 0.982 | 0.993 | 1.02 | 0.951 | 0.923 | 0.985 | 0.999 | 0.901 | 0.887 | 0.696 | 0.798 | 0.811 | 0.784 | 0.833 | 0.804 | 0.586 | 0.642 | 0.605 | 0.572 | 0.486
NCI-H1734 | 0.196 | 0.195 | 0.191 | 0.19 | 0.193 | 0.686 | 0.686 | 0.546 | 0.716 | 0.704 | 0.474 | 0.466 | 0.43 | 0.419 | 0.401 | 0.256 | 0.295 | 0.279 | 0.232 | 0.243
NCI-H1755 | 0.339 | 0.799 | 0.389 | 0.445 | 0.418 | 1 | 0.895 | 0.95 | 0.843 | 0.816 | 0.415 | 0.387 | 0.471 | 0.478 | 0.451 | 0.629 | 0.541 | 0.583 | 0.525 | 0.522
NCI-H1793 | 0.231 | 0.436 | 0.171 | 0.194 | 0.196 | 0.829 | 0.624 | 0.822 | 0.897 | 0.572 | 0.332 | 0.389 | 0.391 | 0.329 | 0.369 | 0.325 | 0.416 | 0.303 | 0.323 | 0.272
NCI-H1915 | 0.827 | 0.684 | 0.791 | 0.79 | 0.783 | 1.05 | 1.06 | 1.01 | 1.04 | 0.97 | 0.369 | 0.316 | 0.357 | 0.396 | 0.292 | 0.447 | 0.418 | 0.396 | 0.422 | 0.369
NCI-H1944 | 0.73 | 0.771 | 0.708 | 0.744 | 0.68 | 0.865 | 0.813 | 0.797 | 0.801 | 0.852 | 0.244 | 0.215 | 0.187 | 0.214 | 0.209 | 0.25 | 0.264 | 0.241 | 0.235 | 0.254
NCI-H1975 | 0.26 | 0.187 | 0.276 | 0.221 | 0.215 | 0.696 | 0.75 | 0.667 | 0.665 | 0.597 | 0.396 | 0.355 | 0.344 | 0.388 | 0.319 | 0.821 | 0.776 | 0.762 | 0.699 | 0.505
NCI-H1993 | 0.872 | 1.02 | 0.705 | 0.736 | 0.533 | 0.664 | 0.682 | 0.692 | 0.642 | 0.634 | 0.767 | 0.621 | 0.521 | 0.553 | 0.568 | 0.596 | 0.563 | 0.574 | 0.567 | 0.553
NCI-H2009 | 1.04 | 0.969 | 1.05 | 0.983 | 0.881 | 1.21 | 1.17 | 1.19 | 1.03 | 0.983 | 0.382 | 0.313 | 0.302 | 0.274 | 0.201 | 0.788 | 0.704 | 0.808 | 0.674 | 0.386
NCI-H2023 | 0.738 | 0.698 | 0.764 | 0.696 | 0.865 | 0.672 | 0.64 | 0.588 | 0.598 | 0.618 | 0.608 | 0.555 | 0.63 | 0.526 | 0.533 | 0.39 | 0.341 | 0.419 | 0.292 | 0.184
NCI-H2085 | 0.412 | 0.437 | 0.404 | 0.434 | 0.429 | 0.941 | 0.983 | 0.959 | 1 | 0.795 | 0.221 | 0.234 | 0.241 | 0.239 | 0.244 | 0.911 | 0.858 | 0.83 | 0.793 | 0.765
